Source: US20160280651A1, “COMPOUNDS THAT INDUCE ABA RESPONSES” (THE REGENTS OF THE UNIVERSITY OF CALIFORNIA, priority 2013, published 2016)

Legend:
[1] = test system: Arabidopsis seeds; experiment: Arabidopsis germination inhibition analysis, Example 12; assay type: in vivo; settings: assessed after 3 days, dark
Protocol: To analyse the effect of compounds on inhibition of germination, Arabidopsis seeds after-ripened for about 4 weeks were surface-sterilized with a solution containing 5% NaClO and 0.05% Tween-20 for 10 minutes, and rinsed with water four times. Sterilized seeds were suspended with 0.1% agar and sowed on 0.8% solidified agar medium containing ½ Murashige and Skoog (MS) salts (Sigma-Aldrich) in the presence of the relevant treatment, stored at 4° C. for 4 days, and then transferred to 22° C. under the dark conditions. Germination was assessed after 3 days.

[2] = test system: ABA-responsive genes; experiment: Quantitative RT-PCR of ABA-responsive genes in Arabidopsis; assay type: in vivo
Protocol: FIG. 9A-FIG. 9D. LC66C6 induces numerous ABA-responsive genes. […] Ten-day old seedlings were treated with carrier solvent (DMSO) or either 25 μM ABA, pyrabactin or LC66C6 for 8 hours. Total RNA was then prepared labeled and hybridized to ATH1 microarrays. Data plotted are log 2 transformed average expression values for ˜13K probes that were detectable across all experiments. Data shown are averages determined from triplicate biological replicates. (C) and (D) show the expression of a reporter gene in different plant tissues after treatment with vehicle (DMSO), pyrabactin, LC66C6, or (+)-ABA.
FIG. 10. ABA-responsive gene expression in PYR/PYL single mutants. The response of the ABA-responsive MAPKKK18, RD29A, and RD29B mRNAs to LC66C6, ABA and pyrabactin were characterized in the Col and Ler ecotypes and the pyr1, pyl1, ply2, pyl3 and pyl4 single mutant genotypes.
FIG. 11. LC66C6 induces ABA-responsive gene expression in wild-type plants, abi1-1 and PYR/PYL quadruple mutants.
Total RNA was isolated using Plant RNA purification reagent (Invitrogen, USA) according to the manufacturer's instructions. cDNA was synthesized from 1 μg of total RNA using the QantiTec reverse transcription kit (Qiagen, USA). Real-time PCR using Maxima® SYBR Green/Fluorescein qPCR Master Mix (Fermentas) was performed with the iQ5 real-time PCR detection system (Bio-Rad, Hercules, Calif.). The relative amounts of target mRNAs were determined using the relative standard curve method and were normalized by relative amount of internal control mRNA. Biological triplicate experiments were performed.

[3] = test system: ABI2 with PYR/PYL receptors; experiment: Receptor-mediated PP2C inhibition assay with ABI2, Example 1; assay type: biochemical, Arabidopsis; settings: 10 μM; in the presence of all ABA receptors tested
Protocol: (§1) FIG. 2A-FIG. 2C. Novel ABA agonists inhibit PPC2 activity through multiple PYR/PYL. (A) Chemical structure of naturally occurring (+)-ABA and selected ABA agonists. (B) and (C) HAB1, ABU, and ABI2 PP2C enzyme activity based ABA-agonist assays for various receptors in the presence or absence of 10 μM each test chemical.
(§2) HAB1 and PYL proteins were expressed and purified as described previously (Park S Y, et al. (2009) Abscisic Acid Inhibits Type 2C Protein Phosphatases via the PYR/PYL Family of START Proteins. Science 324(5930):1068-1071), with minor modifications. To obtain GST-HAB1, -ABI1 and -ABI2 fusion proteins, the HAB1 cDNA was cloned into pGex-2T whereas ABI1 and ABI2 cDNAs were cloned into the vector pGex-4T-1. […] After 16 hours incubation at 15° C., cells were harvested and recombinant proteins were purified on glutathione agarose as described previously (Park S Y, et al. (2009). To obtain 6×His-PYL receptor fusion proteins, receptor cDNAs for all 13 ABA receptors were cloned into the vector pET28 and expressed and purified as described previously (Mosquna A, et al. (2011) Potent and selective activation of abscisic acid receptors in vivo by mutational stabilization of their agonist-bound conformation. PNAS 108(51):20838-20843); this yielded soluble and functional protein (assessed using receptor-mediated PP2C inhibition assays) for all receptors except PYL7, PYL11 and PYL12. […]

[4] = test system: HAB1 with PYR/PYL receptors; experiment: Receptor-mediated PP2C inhibition assay with HAB1, Example 1; assay type: biochemical, Arabidopsis; settings: 10 μM; in the presence of all ABA receptors tested
Protocol: as §1
FIG. 3A-FIG. 3B. (A) Receptor-mediated dose-dependent inhibition of PP2C enzyme activity by ABA agonists and analogs. (B) Observed compound IC50 values in enzymatic HAB1 PP2C-based ABA-agonist assays.
FIG. 4A-FIG. 4B. Quinabactin activates multiple ABA receptors. (A) Chemical structures of ABA, pyrabactin and quinabactin. (B) Chemical-dependent inhibition of HAB1 by ABA receptors. IC50 values (nM) were determined as described in the methods using 50 nM HAB1, 50 nM and multiple concentrations of compounds; full dose response curves are provided as in FIG. 3. (nd) correspond to receptors that were not produced as active proteins. The phylogenetic tree is a Neighbor-Joining tree made using the JTT distance matrix in MEGA5 (Tamura K, et al. (2011) MEGA5: Molecular Evolutionary Genetics Analysis Using Maximum Likelihood, Evolutionary Distance, and Maximum Parsimony Methods. Molecular Biology and Evolution 28(10):2731-2739).
HAB1 and PYL proteins were expressed and purified as described previously (Park S Y, et al. (2009) Abscisic Acid Inhibits Type 2C Protein Phosphatases via the PYR/PYL Family of START Proteins. Science 324(5930):1068-1071), with minor modifications. To obtain GST-HAB1, -ABI1 and -ABI2 fusion proteins, the HAB1 cDNA was cloned into pGex-2T whereas ABI1 and ABI2 cDNAs were cloned into the vector pGex-4T-1. Expression was conducted in BL21[DE3]pLysS host cells. Transformed cells were pre-cultured overnight, transferred to LB medium and cultured at 30° C. to culture A600 of ˜0.5. The culture was then cooled on ice and MnCl2 added to 4 mM and IPTG added to 0.3 mM. After 16 hours incubation at 15° C., cells were harvested and recombinant proteins were purified on glutathione agarose as described previously (Park S Y, et al. (2009). To obtain 6×His-PYL receptor fusion proteins, receptor cDNAs for all 13 ABA receptors were cloned into the vector pET28 and expressed and purified as described previously (Mosquna A, et al. (2011) Potent and selective activation of abscisic acid receptors in vivo by mutational stabilization of their agonist-bound conformation. PNAS 108(51):20838-20843); this yielded soluble and functional protein (assessed using receptor-mediated PP2C inhibition assays) for all receptors except PYL7, PYL11 and PYL12. These three receptors were therefore alternatively expressed as maltose binding (MBP) fusion proteins using the vector pMAL-c; expression of these constructs was carried out in BL21 [DE3]pLysS host strain with the same induction conditions used for GST-HAB1. Recombinant MBP-PYL fusion proteins were purified from sonicated and cleared lysate using amylose resin (New England Biolab, Inc.) using the manufacturers purification instructions. This effort yielded an active MBP-PYL11 fusion protein, but failed for PYL7 and PYL12.
PP2C activity assays using recombinant receptors and PP2Cs were carried out as follows: Purified proteins were pre-incubated in 80 μl assay buffer containing 10 mM MnCl2, 3 μg bovine serum albumin and 0.1% 2-mercaptoethanol with ABA or ABA agonist for 30 minutes at 22° C. Reactions were started by adding 20 μL of a reaction solution containing 156 mM Tris-OAc, pH 7.9, 330 mM KOAc and 5 mM 4-methylumbelliferyl phosphate after which fluorescence measurements were immediately collected using an excitation filter 355 nm and an emission filter 460 nm on a Wallac plate reader. Reactions contained 50 nM PP2C and 100 nM PYR/PYL proteins, respectively.

[5] = test system: Chlamydomonas; experiment: Colony growth of Chlamydomonas with and without salinity and osmotic stress; assay type: in vivo
Protocol: FIG. 17A-FIG. 17D. The effect of ABA and its agonists in Physcomitrella patens and Chlamydomonas. Protonemal growth images (A) and quantitative analysis (B) of the effects of ABA and agonists on Phsycomitrella patens. Protonema were grown on 200 μM of specific test chemical for 10 days. […] Pyrabactin bleached protonema. (C) The expression of ABA-responsive genes of Physcomitrella patens. Protonema were treated with 200 μM chemical solutions for 3 h. (D) Colony growth of Chlamydomonas on the chemical with salinity stress and osmotic stress. There was no effect of ABA and LC66C6 on the Chlamydomonas growth with and without stresses.

[6] = test system: ABI1 with PYR/PYL receptors; experiment: Receptor-mediated PP2C inhibition assay with ABI1, Example 1; assay type: biochemical, Arabidopsis; settings: 10 μM; in the presence of all ABA receptors tested
Protocol: as §1, §2

Compound: CCCN1C(=O)CCc2cc(NS(=O)(=O)Cc3ccc(C)cc3)ccc21 [drawing 36]
- Percentage germination of Arabidopsis seeds ([1]; 0.2 uM): 100%
- Percentage germination of Arabidopsis seeds ([1]; 1 uM): 46%
- Percentage germination of Arabidopsis seeds ([1]; 5 uM): 0%
- Percentage germination of Arabidopsis seeds ([1]; 25 uM): 0%

Compound: C=CCN1C(=O)CCc2cc(NS(=O)(=O)Cc3ccc(Br)cc3)cc(C)c21
- Percentage germination of Arabidopsis seeds ([1]; 0.2 uM): 100%
- Percentage germination of Arabidopsis seeds ([1]; 1 uM): 100%
- Percentage germination of Arabidopsis seeds ([1]; 5 uM): 96%
- Percentage germination of Arabidopsis seeds ([1]; 25 uM): 0%

Compound: C#CCN1C(=O)CCc2cc(NS(=O)(=O)Cc3ccc(Br)cc3)cc(C)c21
- Percentage germination of Arabidopsis seeds ([1]; 0.2 uM): 100%
- Percentage germination of Arabidopsis seeds ([1]; 1 uM): 100%
- Percentage germination of Arabidopsis seeds ([1]; 5 uM): 100%
- Percentage germination of Arabidopsis seeds ([1]; 25 uM): 0%

Compound: C=CCN1C(=O)C(C)Cc2cc(NS(=O)(=O)Cc3ccc(C)cc3)ccc21 (stereo not shown)
- Percentage germination of Arabidopsis seeds ([1]; 0.2 uM): 99%
- Percentage germination of Arabidopsis seeds ([1]; 1 uM): 100%
- Percentage germination of Arabidopsis seeds ([1]; 5 uM): 100%
- Percentage germination of Arabidopsis seeds ([1]; 25 uM): 71%

Compound: C=CCN1C(=O)CCc2cc(NS(=O)(=O)Cc3ccc(Cl)cc3)cc(C)c21
- Percentage germination of Arabidopsis seeds ([1]; 0.2 uM): 100%
- Percentage germination of Arabidopsis seeds ([1]; 1 uM): 100%
- Percentage germination of Arabidopsis seeds ([1]; 5 uM): 100%
- Percentage germination of Arabidopsis seeds ([1]; 25 uM): 0%

Compound: C=CCN1C(=O)CCc2cc(NS(=O)(=O)Cc3ccc(C)cc3)cc(C)c21
- Percentage germination of Arabidopsis seeds ([1]; 0.2 uM): 100%
- Percentage germination of Arabidopsis seeds ([1]; 1 uM): 100%
- Percentage germination of Arabidopsis seeds ([1]; 5 uM): 100%
- Percentage germination of Arabidopsis seeds ([1]; 25 uM): 0%

Compound: C#CCN1C(=O)CCc2cc(NS(=O)(=O)Cc3ccc(C)cc3)cc(C)c21
- Percentage germination of Arabidopsis seeds ([1]; 0.2 uM): 100%
- Percentage germination of Arabidopsis seeds ([1]; 1 uM): 100%
- Percentage germination of Arabidopsis seeds ([1]; 5 uM): 100%
- Percentage germination of Arabidopsis seeds ([1]; 25 uM): 0%

Compound: C=CCN1C(=O)C(C)Cc2cc(NS(=O)(=O)Cc3ccc(OC(F)(F)F)cc3)ccc21 (stereo not shown)
- Percentage germination of Arabidopsis seeds ([1]; 0.2 uM): 100%
- Percentage germination of Arabidopsis seeds ([1]; 1 uM): 100%
- Percentage germination of Arabidopsis seeds ([1]; 5 uM): 100%
- Percentage germination of Arabidopsis seeds ([1]; 25 uM): 14%

Compound: CC1=CC(=O)CC(C)(C)C1(O)/C=C/C(C)=C\C(=O)O (single isomer, unassigned; (+)) [(+)-ABA, Abscisic acid, reference compound]
- Induction of MAPKKK18, RD29A and RD29B mRNAs ([2]; Col and Ler ecotypes and pyr1, pyl1, pyl2, pyl3, pyl4 single mutants): induced
- Expression of ABF3, GBF3, NCED3 and RD29A ([2]; Col wild-type plants): induced expression of ABF3, GBF3, NCED3, and RD29A in a dose dependent manner
- Inhibition of PP2C enzyme activity of ABI2 [3]: > 90%
- Inhibition of PP2C enzyme activity of HAB1 [4]: > 90%
- Growth of Chlamydomonas [5]: no effect
- Inhibition of PP2C enzyme activity of ABI1 [6]: > 90%

Compound: C#CCN1C(=O)CCc2cc(NS(=O)(=O)Cc3ccc(OC(F)(F)F)cc3)cc(C)c21
- Percentage germination of Arabidopsis seeds ([1]; 0.2 uM): 100%
- Percentage germination of Arabidopsis seeds ([1]; 1 uM): 100%
- Percentage germination of Arabidopsis seeds ([1]; 5 uM): 68%
- Percentage germination of Arabidopsis seeds ([1]; 25 uM): 0%

Compound: C=CCN1C(=O)CCc2cc(NS(=O)(=O)Cc3ccc(OC(F)(F)F)cc3)cc(C)c21
- Percentage germination of Arabidopsis seeds ([1]; 0.2 uM): 100%
- Percentage germination of Arabidopsis seeds ([1]; 1 uM): 100%
- Percentage germination of Arabidopsis seeds ([1]; 5 uM): 30%
- Percentage germination of Arabidopsis seeds ([1]; 25 uM): 0%
